Laboratory results as given in patent publication US10913781B2, “Pepducin design and use” (Tufts Medical Center, Inc., priority 2011, dated 2021).
Peptide text beside a SMILES is read from it. * marks the point of attachment. Palmitoyl = CCCCCCCCCCCCCCCC(=O)*

Assays:
VEGF-A production = test: Thrombin-dependent VEGF-A production in A549 cells (ELISA); format: cell-based, human; details: A549, 18 hours thrombin treatment
Method: FIG. 13 illustrates that monotherapy with PAR1-i3 pepducins inhibits tumor progression of A549 xenografts. (A) and (B): A549 mice treated with vehicle, P1pal-7, P1pal-i1-11, P1pal-10S, X1/2-i1, X1/2-i3, or Avastin. Each time point represents the mean±SE. (C): Final tumor volume at the completion of the experiment was calculated as a percentage of untreated vehicle control. (D): Serum-starved A549 adenocarcinoma cells were pretreated with P1pal-7, P1pal-10S, P1pal-i1-11, vehicle, or PD98059 and stimulated with thrombin. VEGF production was assessed by enzyme-linked immunosorbent assay. Data are expressed as mean±SD (*P<0.05, **P<0.01).
Because the i3-based P1pal-7 pepducin had similar efficacy as Avastin in suppressing lung tumor growth of A549 xenografts, VEGF-A production was measured in the A549 tumor cells after 18 hours thrombin treatment. […] Unlike in ovarian cancer, no increase was found in PAR1-mediated IL-8 production in A549 cells, consistent with the observed lack of efficacy of CXCR1/2 pepducins in the A549 xenograft models. These xenograft data provide support for the role of a novel PAR1-ERK1/2-VEGF paracrine pathway that is an effective therapeutic target in the A549 adenocarcinoma lung cancer model.

PAR1 = target: T1, PAR1 (Homo sapiens, UniProt P25116); test: Human platelet Ca2+ flux stimulated with SFLLRN; format: cell-based; design: endogenous in cells; host or cells: A549, HOP62, H1299, H522, H226, HOP92 lung carcinoma lines; details: human platelets
T1 sequence (P25116 22-425): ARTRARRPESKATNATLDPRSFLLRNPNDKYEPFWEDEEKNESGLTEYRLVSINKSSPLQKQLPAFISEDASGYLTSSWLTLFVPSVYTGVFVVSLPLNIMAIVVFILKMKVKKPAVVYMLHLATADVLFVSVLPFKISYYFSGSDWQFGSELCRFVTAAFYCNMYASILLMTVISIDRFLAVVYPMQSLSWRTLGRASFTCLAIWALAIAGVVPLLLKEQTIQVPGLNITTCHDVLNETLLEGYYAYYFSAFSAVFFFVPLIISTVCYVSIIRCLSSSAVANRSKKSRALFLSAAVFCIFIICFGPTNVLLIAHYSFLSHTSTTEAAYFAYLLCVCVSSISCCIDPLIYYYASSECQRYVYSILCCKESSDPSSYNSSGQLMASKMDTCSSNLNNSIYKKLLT
Text: FIG. 8 illustrates data that show membrane-tethered PAR1-i3 and i1 pepducins block Ca^2+ flux and migration. (A): Model of PAR1 based on the […] structure of rhodopsin from Swift et al., 2006. Protease cleaved receptor results in generation of a new tethered ligand. The topologic arrangement of the […] to i4 loops and G proteins are illustrated. Schematic diagram of palmitoylated PAR1 i3 and i1 pepducins and their amino acid sequence composition are shown. (B): Effect of PAR1 pepducins on human platelets Ca^2+ flux. Platelets were preincubated with indicated concentrations of pepducins and stimulated with SFLLRN. Effect of blockade is expressed as the percentage of full Ca^2+ signal generated with SFLLRN in the absence of inhibitors. (C): Migration of A549 cells toward 0.3 nmol/L thrombin or 10 μmol/L […] in the presence or absence of 3 μmol/L P1pal-7, P1pal-10S, or P1pal-i1-11 after 18 hours. […] Cell migration is expressed as fold migration of ligand-mediated migration divided by basal migration.
First, it had been previously shown that PAR1 strongly couples to Gq in human platelets as assessed by Ca^++ signaling. In order to determine effect of i1 and i3 pepducins on PAR1 mediated Gq-PLCβ-lnsP3 signaling, human platelets were pretreated with PAR1 pepducins and stimulated with SFLLRN, before the rate of Ca^++ flux was measured.

[1] = Pharmacokinetics of PAR1 pepducins in CF-1 mice, plasma LC/MS/MS; format: in vivo, mouse; design: Peak plasma level: unit not given here; details: 10 mg/kg s.c.
Method: FIG. 14 illustrates pharmacokinetics of PAR1 pepducins. (A): CF-1 mice were injected subcutaneously with P1pal-7 (3 mg/kg, open circles), P1pal-7 (10 mg/kg, closed circles), P1pal-10S (10 mg/kg, gray circles), or P1pal-i1-11 (10 mg/kg, open squares) in 20% dimethyl sulfoxide and blood was collected at indicated time points (n=3). Pepducin levels in plasma were quantified with LC/MS/MS. (B): Daily (D1 to D6) plasma levels of P1pal-7 after subcutaneous injection of 10 mg/kg P1pal-7 were measured at 1 hour (open circles) and 24 hours (open squares).
Pharmacokinetics of plasma levels of P1pal-7, P1pal-10S, and P1pal-i1-11 at 30 minutes, and at 1, 2, 4, 6, 8, and 16 hours was measured by LC/MS/MS to determine steady-state pepducin drug levels and the rate of elimination from mice. Subcutaneous injections of P1pal-7 (3 mg/kg or 10 mg/kg) into wild-type CF-1 mice (25 to 30 g) was followed by blood collection at various time points from the vena cava. […] Residual P1pal-7 levels were 10 nmol/L at the 16-hour time point. After the 4-hour plateau, the elimination rate was linear from 4 to 16 hours. The peak plasma level of 3 mg/kg P1pal-7 reached 0.6 μmol/L at 2 hours and elimination was linear between 2 hours and 16 hours. P1pal-10S (10 mg/kg) gave similar peak plasma level of 1.0 μmol/L as P1pal-7 (10 mg/kg) at 1 hour.
Lastly, the peak plasma level of P1pal-7 (10 mg/kg) was measured before and 1 hour after once-daily subcutaneous injection over 6 days to determine whether the peak plasma levels were consistent on daily administration.

PAR2 [2] = target: T2, PAR2 (Homo sapiens, UniProt P55085); test: Agonist | (%)^†; design: SW620 colon adenocarcinoma cells that endogenously express PAR2; endogenous in cells; host or cells: SW620 (in A7 the SW620 cells were additionally stably transfected with PAR1); details: 4 µM
Target sequence in this assay (P55085 26-397 limits assumed): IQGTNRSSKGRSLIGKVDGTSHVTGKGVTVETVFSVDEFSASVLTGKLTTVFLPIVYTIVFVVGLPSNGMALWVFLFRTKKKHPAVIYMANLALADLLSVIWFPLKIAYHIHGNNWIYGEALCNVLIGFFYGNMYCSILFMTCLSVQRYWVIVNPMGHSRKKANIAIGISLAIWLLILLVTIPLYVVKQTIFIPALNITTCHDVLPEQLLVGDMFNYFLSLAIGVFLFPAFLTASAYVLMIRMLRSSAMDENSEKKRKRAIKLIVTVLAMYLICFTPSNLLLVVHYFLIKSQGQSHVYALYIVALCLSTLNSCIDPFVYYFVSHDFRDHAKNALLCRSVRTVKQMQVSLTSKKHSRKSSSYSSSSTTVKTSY
Method: (A) Agonist and antagonist activity of third intracellular (i3) loop PAR2 pepducins (structure shown on top) using calcium flux assays with SW620 colon adenocarcinoma cells that endogenously express PAR2. Each column of three calcium flux traces corresponds to the i3 pepducin sequence shown above. The top row is the agonist activity of 3-4 μM pepducin and the middle row is the agonist activity of 14-15 μM pepducin. […] Final concentration of DMSO vehicle was 0.2%. […] (C) Agonist activity for each pepducin from (A) is reported as initial velocity of calcium flux at 4 μM pepducin (†), or at 14-15 μM pepducin (‡).

PAR2 [3] = target: T2, PAR2; test: PAR2 binding to avidin beads coupled with PAR2 i3 loop 18S peptide
Target sequence in this assay (P55085 26-397): as the sequence (P55085 26-397 limits assumed) above

SMILES	Effect on thrombin-dependent VEGF-A production (VEGF-A production)	Extent of inhibition of calcium mobilization (PAR1)	Clearance / plasma half-life in words [1]	Peak plasma level ([1]; between 0.5 and 8 hours)	Agonist | (%)^† (PAR2 [2]) [%]	Binding of PAR2 to peptide-coupled avidin beads versus beads alone (PAR2 [3])
CCCCCCCCCCCCCCCC(=O)N[C@H](C(=O)N[C@@H](CC(C)C)C(=O)N[C@@H](CCCCN)C(=O)N[C@@H](CCSC)C(=O)N[C@@H](CCCCN)C(=O)N[C@H](C(=O)N[C@@H](CCCCN)C(=O)N[C@@H](CCCCN)C(=O)N1CCC[C@H]1C(=O)N[C@@H](C)C(=O)N[C@H](C(N)=O)C(C)C)C(C)C)[C@@H](C)CC [P1pal-i1-11] (Palmitoyl-ILKMKVKKPAV-NH2)	did not inhibit	less effective in inhibiting the Gq mediated calcium signal	sustained plasma half-life	5.0	–	–
CCCCCCCCCCCCCCCC(=O)N[C@@H](CCCNC(=N)N)C(=O)N[C@@H](CO)C(=O)N[C@@H](CO)C(=O)N[C@@H](C)C(=O)N[C@@H](CCSC)C(=O)N[C@@H](CC(=O)O)C(=O)N[C@@H](CCC(=O)O)C(=O)N[C@@H](CC(N)=O)C(=O)N[C@@H](CO)C(=O)N[C@@H](CCC(=O)O)C(=O)N[C@@H](CCCCN)C(=O)N[C@@H](CCCCN)C(=O)N[C@@H](CCCNC(=N)N)C(=O)N[C@@H](CCCCN)C(=O)N[C@@H](CO)C(=O)N[C@@H](C)C(=O)N[C@H](C(=O)N[C@@H](CCCCN)C(N)=O)[C@@H](C)CC [P2pal-18S]	–	–	–	–	3	enhanced binding
